What was measured:
LNCaP cells = test: Cellular uptake experiments with 99mTc-labeled ligands in LNCaP cells (with and without 2-PMPA competitor); assay type: cell-based
Experimental: (§1) Phosphate buffer was prepared from 890 mg Na2PO4.2H2O in 9.5 mL water for injection and 0.5 mL 2 m NaOH. After dissolution of the salts, the buffer was sterile filtered, the pH was determined using pH stripes (pH=11.5-12.0). The labeling mixture consisted of 1 μl precursor solution (1 mg/ml in MeCH/H2O 20:50; approx. 1 nmol), 20 μl phosphate buffer, 10 μl […] (TCEP; 28.7 mg/mL in phosphate buffer; 0.1 molar solution) and 4-10 μL pertechnetate in saline (0.9% NaCl; generator cluate) containing an activity of approx. 7.5 MBq. The mixture was filled to 100 μl with saline (0.9% NaCl; 59-65 μL). The pH of the reaction mixture was 8.0-8.5 (tendency towards 8.5). The mixture was heated at 98° C. for 10 minutes. After cooling to room temperature, the mixture was diluted to 1 mL by addition of saline (0.9% NaCl, ligand concentration 1 μm). An aliquot was analyzed by HPLC to determine the radiochemical yield (RCY) (method B, see example 9). Aliquots of the product mixture containing the ^99mTc-labeled ligand were further diluted to a concentration of approx. 100 nM (precursor) in PBS with and without a 10000 fold excess of 2-(Phosphonomethyl)-pentandioic acid, 2-Phosphonomethyl pentanedioic acid (2-PMPA) as competitor.
Cellular uptake experiments were conducted in analogy to previously described procedures (Lindner et al., Doi.: 10.2967/jnumed.118.210443). Briefly, LNCaP cells were seeded in 6-Well plates in RPMI medium containing 20% FBS (two day of incubation prior to the experiment) and grown to a confluency of 70-80%. For the uptake experiment, the medium was removed and the cells were incubated with 1 mL of a 1:99 dilution of the 100 nM product mixture dilutions (with and without competitor) described in Example 3. […] The cellular uptake was determined from the activity in the lysed fraction. The unspecific uptake was determined from the cellular uptake of the cells incubated with the ligand in presence of the competitor. […]

PSMA = biological target: T1, PSMA (Homo sapiens, UniProt Q04609); test: Competitive binding experiments on LNCaP cells (competitor 2-PMPA), Ki by Cheng-Prusoff; conditions: 1 h, calculated from IC50 with cheng-prusoff equation, values printed in parentheses
T1 construct: endogenous in cells; host or cells: LNCaP cells
T1 sequence (Q04609 whole entry): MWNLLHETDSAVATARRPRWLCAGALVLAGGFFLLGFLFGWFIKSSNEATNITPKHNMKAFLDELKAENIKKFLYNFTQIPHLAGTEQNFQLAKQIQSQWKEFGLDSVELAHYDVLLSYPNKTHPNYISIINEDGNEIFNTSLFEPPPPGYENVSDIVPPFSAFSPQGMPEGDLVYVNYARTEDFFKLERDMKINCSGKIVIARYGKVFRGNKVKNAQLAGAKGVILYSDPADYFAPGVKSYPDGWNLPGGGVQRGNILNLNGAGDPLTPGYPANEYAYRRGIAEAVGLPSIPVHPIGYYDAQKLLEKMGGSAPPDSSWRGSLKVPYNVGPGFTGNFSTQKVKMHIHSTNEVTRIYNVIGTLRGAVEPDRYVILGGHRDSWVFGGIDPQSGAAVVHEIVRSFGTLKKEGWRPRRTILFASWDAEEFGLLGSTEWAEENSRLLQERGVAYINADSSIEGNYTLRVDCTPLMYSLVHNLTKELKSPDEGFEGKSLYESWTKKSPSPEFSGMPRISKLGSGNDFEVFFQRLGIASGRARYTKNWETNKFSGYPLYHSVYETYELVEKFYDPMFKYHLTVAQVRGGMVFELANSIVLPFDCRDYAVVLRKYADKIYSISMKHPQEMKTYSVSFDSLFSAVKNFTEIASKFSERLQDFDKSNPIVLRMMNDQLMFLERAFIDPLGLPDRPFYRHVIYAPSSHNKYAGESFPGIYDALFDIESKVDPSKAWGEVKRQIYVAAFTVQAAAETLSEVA
Experimental: as §1
For determination of Ki, competitive binding experiments were conducted. […] The cellular uptake was determined from the activity in the lysed fraction.

- Ki (PSMA): 38 nM
Substance: ^99mTc-EDDA-HYNIC-iPSMA [[^99mTc]TLX-598]
- Specific uptake (LNCaP cells; 1 h, unspecific uptake subtracted from cellular uptake): 18.7 ± 0.3 % AD/10^6 cells
- Unspecific uptake (LNCaP cells; 1 h incubation, in presence of 10000 fold excess 2-PMPA): 1.64 ± 0.07 % AD/10^6 cells
- Uptake (LNCaP cells; 1 h incubation, triplicate): 20.3 ± 0.3 % AD/10^6 cells

Reference: patent US20240238460A1, “IMPROVED PROSTATE-SPECIFIC MEMBRANE ANTIGEN TARGETING RADIOPHARMACEUTICALS AND USES THEREOF” (TELIX PHARMACEUTICALS (INNOVATIONS) PTY LTD, priority 2021, published 2024)
